For one assay, the system named is E. coli. As to the kind of experiment: Range of MIC for E. coli strains. The note with it: Escherichia coli.
The test system of the next assay is Staph. The experiment in a line: Range of MIC for Staph. strains, including MRSA. Conditions: Staphylococcus aureus, MRSA.
Another assay has as its system Staph. aureus Smith. As to the kind of experiment: In vivo activity (oral, iv; ED50) against Staph. aureus Smith in mice.
Where [1] appears, read: 20 h, read-out: Range of MIC, E. coli (Mouse Serum).
[2] abbreviates: read-out: Minimum inhibitory concentration (MIC), E. coli (mouse serum).
The mark [3] stands for this setting: read-out: Minimum inhibitory concentration (MIC), E. coli (water).
Where [4] appears, read: read-out: Range of MIC, E. coli (Water).
The mark [5] stands for this setting: read-out: Minimum inhibitory concentration (MIC), Staph. (mouse serum).
The mark [6] stands for this setting: read-out: Range of MIC, Staph (Mouse Serum).
[7] abbreviates: Staphylococcus aureus, in Mus musculus, po, read-out: ED50 Staph Smith SOD.
Setting [8] is: iv, read-out: ED50 Staph Smith SIV.
The mark [9] stands for this setting: read-out: Minimum inhibitory concentration (MIC), Staph. (water).
The mark [10] stands for this setting: read-out: Range of MIC, Staph (Water).

In patent US20070049564A1 (Wyeth, priority 2005, published 2007) one finds MIC and ED50 data, which are given here for 8 compounds.

≈ marks a conversion by molar mass, not a printed value. Where two headings read alike, the source gives them in different places.

Procedure for Staph. aureus Smith: Representative examples of compounds of Formula I were tested for the oral efficacy using S. aureus Smith in mice.

On to `CCCCN(CC(=O)Nc1cc(N(C)C)c2c(c1O)C(=O)C1=C(O)[C@]3(O)C(=O)C(C(N)=O)=C(O)[C@@H](N(C)C)[C@@H]3C[C@@H]1C2)C(=O)OCOC(=O)c1ccc(C(C)(C)C)cc1` [Example 20, ({[(2-{[(5aR,6aS,7S,10aS)-9-(aminocarbonyl)-4,7-bis(dimethylamino)-1,8,10a,11-tetrahydroxy-10,12-dioxo-5,5a,6,6a,7,10,10a,12-octahydrotetracen-2-yl]amino}-2-oxoethyl)(butyl)amino]carbonyl}oxy)methyl 4-tert-butylbenzoate], for which the MIC is 0.5 to 2 µg/mL (≈ 0.61 to 2.44 µM) in the assay on E. coli (setting [1]); 0.5 to 2 µg/mL (≈ 0.61 to 2.44 µM) in the assay with E. coli (setting [2]); more than 64 µg/mL in the assay on E. coli (setting [3]); more than 64 µg/mL in the assay with E. coli (setting [4]); 1 to 4 µg/mL (≈ 1.22 to 4.88 µM) in the assay with Staph. (setting [5]); 1 to 4 µg/mL (≈ 1.22 to 4.88 µM) with Staph. (setting [6]). Moreover, the values for the ED50 in the assay with Staph. aureus Smith (setting [7]) and in the assay with Staph. aureus Smith (setting [8]) were 19.4 mg/kg and 0.6 mg/kg, respectively.

On to `CCCCN(CC(=O)Nc1cc(N(C)C)c2c(c1O)C(=O)C1=C(O)[C@]3(O)C(=O)C(C(N)=O)=C(O)[C@@H](N(C)C)[C@@H]3C[C@@H]1C2)C(=O)OCOC(=O)c1ccsc1` [Example 29, ({[(2-{[(5aR,6aS,7S,10aS)-9-(aminocarbonyl)-4,7-bis(dimethylamino)-1,8,10a,11-tetrahydroxy-10,12-dioxo-5,5a,6,6a,7,10,10a,12-octahydrotetracen-2-yl]amino}-2-oxoethyl)(butyl)amino]carbonyl}oxy)methyl thiophene-3-carboxylate], for which the MIC with E. coli (setting [1]) is 0.5 to 1 µg/mL (≈ 0.649 to 1.3 µM); in the assay on E. coli (setting [2]), 0.5 to 1 µg/mL (≈ 0.649 to 1.3 µM); in the assay with E. coli (setting [3]), more than 64 µg/mL; in the assay with E. coli (setting [4]) it was more than 64 µg/mL; with Staph. (setting [5]) it was 0.25 to 2 µg/mL (≈ 0.325 to 2.6 µM); in the assay with Staph. (setting [9]), 1 to 4 µg/mL (≈ 1.3 to 5.2 µM). The MIC in the assay on Staph. (setting [6]) lay in the range of 0.25 to 2 µg/mL (≈ 0.325 to 2.6 µM); in the assay with Staph. (setting [10]), 1 to 4 µg/mL (≈ 1.3 to 5.2 µM). In addition, the figures for the ED50 in the assay on Staph. aureus Smith (setting [7]) and with Staph. aureus Smith (setting [8]) were 13.7 mg/kg and 0.43 mg/kg, respectively.

Regarding `CCCCN(CC(=O)Nc1cc(N(C)C)c2c(c1O)C(=O)C1=C(O)[C@]3(O)C(=O)C(C(N)=O)=C(O)[C@@H](N(C)C)[C@@H]3C[C@@H]1C2)C(=O)OCOC(=O)c1ccco1` [Example 30, ({[(2-{[(5aR,6aS,7S,10aS)-9-(aminocarbonyl)-4,7-bis(dimethylamino)-1,8,10a,11-tetrahydroxy-10,12-dioxo-5,5a,6,6a,7,10,10a,12-octahydrotetracen-2-yl]amino}-2-oxoethyl)(butyl)amino]carbonyl}oxy)methyl 2-furate], the MIC in the assay on E. coli (setting [1]) lay in the range of 0.5 to 1 µg/mL (≈ 0.663 to 1.33 µM); in the assay with E. coli (setting [2]), 0.5 to 1 µg/mL (≈ 0.663 to 1.33 µM); with Staph. (setting [5]), 0.25 to 2 µg/mL (≈ 0.332 to 2.65 µM); in the assay with Staph. (setting [9]) it was 1 to 8 µg/mL (≈ 1.33 to 10.6 µM); in the assay on Staph. (setting [6]), 0.25 to 2 µg/mL (≈ 0.332 to 2.65 µM); in the assay with Staph. (setting [10]), 1 to 8 µg/mL (≈ 1.33 to 10.6 µM). Besides, the ED50 (usually the dose that gives a 50% effect, or the effect in half of the subjects) stood at 15.1 mg/kg with Staph. aureus Smith (setting [7]) and 0.41 mg/kg in the assay with Staph. aureus Smith (setting [8]).

In the case of `CCCN(CC(=O)Nc1cc(N(C)C)c2c(c1O)C(=O)C1=C(O)[C@]3(O)C(=O)C(C(N)=O)=C(O)[C@@H](N(C)C)[C@@H]3C[C@@H]1C2)C(=O)OCOC(=O)c1ccco1` [Example 31, ({[(2-{[(5aR,6aS,7S,10aS)-9-(aminocarbonyl)-4,7-bis(dimethylamino)-1,8,10a,11-tetrahydroxy-10,12-dioxo-5,5a,6,6a,7,10,10a,12-octahydrotetracen-2-yl]amino}-2-oxoethyl)(propyl)amino]carbonyl}oxy)methyl 2-furate], the MIC fell in the range of 0.5 to 1 µg/mL (≈ 0.676 to 1.35 µM) with E. coli (setting [1]); 0.5 to 1 µg/mL (≈ 0.676 to 1.35 µM) with E. coli (read-out: Range of MIC, E. coli (mouse serum)); 0.25 to 2 µg/mL (≈ 0.338 to 2.7 µM) in the assay with Staph. (setting [6]); 0.5 to 4 µg/mL (≈ 0.676 to 5.41 µM) in the assay on Staph. (setting [10]); 0.25 to 2 µg/mL (≈ 0.338 to 2.7 µM) with Staph. (read-out: Range of MIC, Staph. (mouse serum)); 0.5 to 4 µg/mL (≈ 0.676 to 5.41 µM) with Staph. (read-out: Range of MIC, Staph. (water)). Also, the results for the ED50 in the assay on Staph. aureus Smith (setting [7]) and with Staph. aureus Smith (setting [8]) were 11.1 mg/kg and 0.31 mg/kg, respectively.

With `CCCCN(CC(=O)Nc1cc(N(C)C)c2c(c1O)C(=O)C1=C(O)[C@]3(O)C(=O)C(C(N)=O)=C(O)[C@@H](N(C)C)C3CC1C2)C(=O)OC(C)OC(C)=O` (stereo partly drawn) [Example 32, 1-({[(2-{[(7S,10aS)-9-(aminocarbonyl)-4,7-bis(dimethylamino)-1,8,10a,11-tetrahydroxy-10,12-dioxo-5,5a,6,6a,7,10,10a,12-octahydrotetracen-2-yl]amino}-2-oxoethyl)(butyl)amino]carbonyl}oxy)ethyl acetate], the MIC with E. coli (setting [1]) lay within 0.5 to 1 µg/mL; in the assay with E. coli (setting [4]), 1 to 4 µg/mL; in the assay with Staph. (setting [6]), 0.25 to 2 µg/mL; in the assay with Staph. (setting [10]), 0.5 to 4 µg/mL. Also, the ED50 came out at 7.7 mg/kg in the assay on Staph. aureus Smith (setting [7]) and 0.56 mg/kg with Staph. aureus Smith (setting [8]).

`CCCCN(CC(=O)Nc1cc(N(C)C)c2c(c1O)C(=O)C1=C(O)[C@]3(O)C(=O)C(C(N)=O)=C(O)[C@@H](N(C)C)C3CC1C2)C(=O)OCOC(=O)C1CCCCC1` (stereo partly drawn) [Example 34, ({[(2-{[(7S,10aS)-9-(aminocarbonyl)-4,7-bis(dimethylamino)-1,8,10a,11-tetrahydroxy-10,12-dioxo-5,5a,6,6a,7,10,10a,12-octahydrotetracen-2-yl]amino}-2-oxoethyl)(butyl)amino]carbonyl}oxy)methyl cyclohexanecarboxylate]: the MIC in the assay with E. coli (setting [1]) was in the range of 0.5 to 1 µg/mL (≈ 0.649 to 1.3 µM); with E. coli (setting [2]), 0.5 to 1 µg/mL (≈ 0.649 to 1.3 µM); in the assay with E. coli (setting [3]), 4 to 16 µg/mL (≈ 5.2 to 20.8 µM); with E. coli (setting [4]), 4 to 16 µg/mL (≈ 5.2 to 20.8 µM); in the assay with Staph. (setting [5]), 0.25 to 4 µg/mL (≈ 0.325 to 5.2 µM); with Staph. (setting [9]), 0.25 to 4 µg/mL (≈ 0.325 to 5.2 µM). Further, the MIC in the assay with Staph. (setting [6]) and with Staph. (setting [10]) was 0.25 to 4 µg/mL (≈ 0.325 to 5.2 µM) each time. In addition, the ED50 with Staph. aureus Smith (setting [7]) was 12.9 mg/kg; with Staph. aureus Smith (setting [8]), 0.71 mg/kg.

For `CCCN(CC(=O)Nc1cc(N(C)C)c2c(c1O)C(=O)C1=C(O)[C@]3(O)C(=O)C(C(N)=O)=C(O)[C@@H](N(C)C)[C@@H]3C[C@@H]1C2)C(=O)OCOC(=O)C(C)(C)CC` [Example 37, ({[(2-{[(5aR,6aS,7S,10aS)-9-(aminocarbonyl)-4,7-bis(dimethylamino)-1,8,10a,11-tetrahydroxy-10,12-dioxo-5,5a,6,6a,7,10,10a,12-octahydrotetracen-2-yl]amino}-2-oxoethyl)(propyl)amino]carbonyl}oxy)methyl 2,2-dimethylbutanoate], the MIC in the assay on E. coli (setting [1]) was in the range of 2 to 4 µg/mL (≈ 2.69 to 5.38 µM); in the assay with E. coli (setting [4]), 4 to 32 µg/mL (≈ 5.38 to 43 µM); in the assay with Staph. (setting [6]), 1 to 4 µg/mL (≈ 1.34 to 5.38 µM); with Staph. (setting [10]) it was 2 to 4 µg/mL (≈ 2.69 to 5.38 µM). Moreover, the ED50 in the assay with Staph. aureus Smith (setting [7]) came out at 4.1 mg/kg; with Staph. aureus Smith (setting [8]), 0.55 mg/kg.

With `CCCCN(CC(=O)Nc1cc(N(C)C)c2c(c1O)C(=O)C1=C(O)[C@]3(O)C(=O)C(C(N)=O)=C(O)[C@@H](N(C)C)[C@@H]3C[C@@H]1C2)C(=O)OCOC(=O)C12CC3CC(CC(C3)C1)C2` [Example 39, ({[(2-{[(5aR,6aS,7S,10aS)-9-(aminocarbonyl)-4,7-bis(dimethylamino)-1,8,10a,11-tetrahydroxy-10,12-dioxo-5,5a,6,6a,7,10,10a,12-octahydrotetracen-2-yl]amino}-2-oxoethyl)(butyl)amino]carbonyl}oxy)methyl adamantane-1-carboxylate], the MIC in the assay with E. coli (setting [1]) lay in the range of 1 to 4 µg/mL (≈ 1.22 to 4.87 µM); in the assay with E. coli (setting [2]), 1 to 4 µg/mL (≈ 1.22 to 4.87 µM); in the assay with E. coli (setting [3]), 16 to 32 µg/mL (≈ 19.5 to 38.9 µM); in the assay on E. coli (setting [4]), 16 to 32 µg/mL (≈ 19.5 to 38.9 µM); with Staph. (setting [5]), 1 to 4 µg/mL (≈ 1.22 to 4.87 µM); in the assay with Staph. (setting [9]), 2 to 16 µg/mL (≈ 2.43 to 19.5 µM). In addition, the results for the MIC with Staph. (setting [6]) and with Staph. (setting [10]) were 1 to 4 µg/mL (≈ 1.22 to 4.87 µM) and 2 to 16 µg/mL (≈ 2.43 to 19.5 µM), respectively. In addition, the ED50 in the assay on Staph. aureus Smith (setting [7]) amounted to 13.3 mg/kg; with Staph. aureus Smith (setting [8]), 0.6 mg/kg.
